Data reported in PMC9333455, “Drug repurposing based on a quantum-inspired method versus classical fingerprinting uncovers potential antivirals against SARS-CoV-2” (PLoS Computational Biology, 2022).
pIC50: −log10 of the molar value. Like-named read-outs stand apart in the source and are kept apart here.

What was measured:
[1] = system: SARS-CoV-2 (England 02/2020/407073 isolate); assay: SARS-CoV-2 replication in Vero E6 cells, plaque assay; type: cell-based
[2] = biological target: SARS-CoV-2 RdRP (Severe acute respiratory syndrome coronavirus 2, UniProt P0DTD1); assay: SARS-CoV-2 RdRP RNA polymerization activity, in vitro fluorescent assay; type: biochemical; conditions: for inhibition of RdRP polymerization activity (in words): dose-response, relative to DMSO
[3] = system: SARS-CoV-2; assay: Total and genomic viral RNA levels in cell lysates, RT-qPCR; type: cell-based; conditions: Vero E6 and Caco-2 cells, 48 hours after infection
[4] = design: method as in PMID 25251156; conditions: halted progression from phase II clinical trials; cited from earlier work
[5] = system: Vero E6 cells; assay: Cytotoxicity in uninfected Vero E6 cells, MTT assay
[6] = system: SARS-CoV-2; conditions: cited from earlier work
[7] = Severe acute respiratory syndrome coronavirus 2, Vero C1008, read-out: IC50 (50% decrease in the titre of supernatant virus), MOI 0.05, 48 h
[8] = purified RdRP, 2 hours at 37°C, middle point between top and bottom plateaus, read-out: relative IC50 (RdRP polymerization activity)

SMILES | pIC50 [1, 7] | inhibition of RdRP polymerization activity (in words) [2] | pIC50 [2, 8] | other results
COc1nc(N)nc2c1ncn2[C@@H]1O[C@H](COP(=O)(N[C@@H](C)C(=O)OCC(C)(C)C)Oc2cccc3ccccc23)[C@@H](O)[C@@]1(C)O (some centres unmarked) [BMS-986094] | 4.58 | inhibited RdRP polymerization activity in a dose-dependent manner |  | pIC50 [2]: 4.73; total and genomic viral RNA levels in cell lysates (in words) [3]: consistently decreasing; cardiac effects (in words) [4]: harmful cardiac effects; concentration at which toxic to cells ([5]; 48 h): > 100 µM
C/C1=C2/[N-]C([C@H](CC(N)=O)[C@@]2(C)CCC(=O)NC[C@@H](C)OP(=O)([O-])O[C@H]2[C@@H](O)[C@@H](n3cnc4cc(C)c(C)cc43)O[C@@H]2CO)[C@]2(C)N=C(/C(C)=C3N=C(/C=C4N=C1[C@@H](CCC(N)=O)C\4(C)C)[C@@H](CCC(N)=O)[C@]\3(C)CC(N)=O)[C@@H](CCC(N)=O)[C@]2(C)CC(N)=O.[CH2-][C@H]1O[C@@H](n2cnc3c(N)ncnc32)[C@@H](O)[C@@H]1O.[Co+3] [Cobamamide, cobamamide] |  | inhibited RdRP polymerization activity in a dose-dependent manner | 4.26 | pIC50 ([1]; read-out: IC50 (50% decrease in the titre of supernatant virus), MOI 0.05, 48 h): 3.39; cytotoxicity ([5]; highest dose of 1mM): up to 20%
CC(C)OC(=O)[C@H](C)N[P@+]([O-])(OC[C@H]1O[C@@](C#N)(c2ccc3c(N)ncnn23)[C@](C)(O)[C@@H]1OC(=O)C(C)C)Oc1ccccc1 [GS-6620] |  |  |  | efficacy against SARS-CoV-2 (in words) [6]: lack of efficacy against SARS-CoV-2
C/C1=C2/[N-][C@H]([C@H](CC(N)=O)[C@@]2(C)CCC(=O)NC[C@@H](C)OP(=O)([O-])O[C@H]2[C@@H](O)[C@@H](n3cnc4cc(C)c(C)cc43)O[C@@H]2CO)[C@]2(C)N=C(/C(C)=C3N=C(/C=C4N=C1[C@@H](CCC(N)=O)C\4(C)C)[C@@H](CCC(N)=O)[C@]\3(C)CC(N)=O)[C@@H](CCC(N)=O)[C@]2(C)CC(N)=O.[Co+3].[OH-] [Hydroxocobalamin, hydroxocobalamin] |  | inhibited RdRP polymerization activity in a dose-dependent manner | 4.04 | 
C/C1=C2/[N-][C@H]([C@H](CC(N)=O)[C@@]2(C)CCC(=O)NC[C@H](C)OP(=O)([O-])O[C@H]2[C@@H](O)[C@@H](n3cnc4cc(C)c(C)cc43)O[C@@H]2CO)[C@]2(C)N=C(/C(C)=C3N=C(/C=C4N=C1[C@@H](CCC(N)=O)C\4(C)C)[C@@H](CCC(N)=O)[C@]\3(C)CC(N)=O)[C@@H](CCC(N)=O)[C@]2(C)CC(N)=O.[CH3-].[Co+3] [Mecobalamin, methylcobalamin] |  | inhibited RdRP polymerization activity in a dose-dependent manner | 4.07 | 
CCC(CC)COC(=O)[C@H](C)N[P@](=O)(OC[C@H]1O[C@@](C#N)(c2ccc3c(N)ncnn23)[C@H](O)[C@@H]1O)Oc1ccccc1 [Remdesivir] | 6.00 |  |  | cytotoxic effects (in words) [5]: did not exert observable cytotoxic effects
